Laboratory results from patent publication US10703756B2, “Pyrrolo[2,3-D]pyrimidinyl, pyrrolo[2,3-B]pyrazinyl, pyrrolo[2,3-B]pyridinyl acrylamides and epoxides thereof” (Pfizer Inc., priority 2015, dated 2020).

Legend:
[1] = molecular target: T1, JAK3 enzyme (Homo sapiens, UniProt P52333); test: JAK Caliper Enzyme Assay at 1 mM ATP; type: biochemical
T1 sequence (P52333 1-1124): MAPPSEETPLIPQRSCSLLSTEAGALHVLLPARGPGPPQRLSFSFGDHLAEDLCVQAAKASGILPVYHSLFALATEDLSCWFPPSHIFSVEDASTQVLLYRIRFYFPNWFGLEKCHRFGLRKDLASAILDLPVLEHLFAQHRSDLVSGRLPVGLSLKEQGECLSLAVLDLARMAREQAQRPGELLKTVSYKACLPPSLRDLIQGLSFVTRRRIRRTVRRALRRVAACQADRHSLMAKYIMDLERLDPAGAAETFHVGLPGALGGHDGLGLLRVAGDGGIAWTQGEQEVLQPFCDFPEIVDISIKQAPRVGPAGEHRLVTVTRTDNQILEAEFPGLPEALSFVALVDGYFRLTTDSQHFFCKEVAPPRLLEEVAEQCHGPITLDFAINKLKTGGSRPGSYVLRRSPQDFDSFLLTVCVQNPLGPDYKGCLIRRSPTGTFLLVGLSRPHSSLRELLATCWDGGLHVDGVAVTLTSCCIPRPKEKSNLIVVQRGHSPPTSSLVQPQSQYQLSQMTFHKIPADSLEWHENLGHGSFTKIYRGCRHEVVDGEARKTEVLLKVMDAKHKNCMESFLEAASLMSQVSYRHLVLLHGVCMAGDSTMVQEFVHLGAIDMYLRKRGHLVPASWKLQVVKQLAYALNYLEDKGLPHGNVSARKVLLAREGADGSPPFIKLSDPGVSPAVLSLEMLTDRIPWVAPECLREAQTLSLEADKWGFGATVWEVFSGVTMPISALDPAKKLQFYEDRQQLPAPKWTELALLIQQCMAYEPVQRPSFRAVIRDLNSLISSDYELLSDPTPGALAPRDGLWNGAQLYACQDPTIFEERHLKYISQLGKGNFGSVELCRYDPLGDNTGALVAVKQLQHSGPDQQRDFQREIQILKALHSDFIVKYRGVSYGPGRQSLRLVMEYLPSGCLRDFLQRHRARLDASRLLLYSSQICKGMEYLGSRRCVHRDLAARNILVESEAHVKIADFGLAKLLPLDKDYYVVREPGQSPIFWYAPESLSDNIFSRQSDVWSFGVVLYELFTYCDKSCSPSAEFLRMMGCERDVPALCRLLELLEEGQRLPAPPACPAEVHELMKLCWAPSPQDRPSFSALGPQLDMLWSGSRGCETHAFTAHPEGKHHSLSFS
How it was run: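 Peptide phosphorylation by the kinase, adjusted to 20%-30% conversion, is measured by microfluidic separation of substrate and product on a Caliper LC3000. Compounds run as 11-point half-log series from a 600 μM DMSO top concentration.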

[2] = system: IL-15 induced P-STAT5 in human PBMC; test: PBMC IL-15 Induced P-STAT5; type: cell-based; conditions: human PBMC, IL-15 final 41 ng/mL; read-out: PBMC IL15_pSTAT5_IC50
How it was run: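 Flow cytometry gated on total lymphocytes measured STAT5 staining (Alexa Fluor 647 antibody, overnight, 4 °C) in fixed, methanol-permeabilised human PBMC. Cells had received compound for 15 min at 37 °C (0.2% DMSO final), followed by 41 ng/mL final human IL-15 for 15 min.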

IC50 [1]: 28 nM
Compound: C=CC(=O)N1C[C@H](COCCC#N)C[C@H](Nc2ncnc3[nH]ccc23)C1 [Example 101, 3-{[(3R,5S)-1-Acryloyl-5-(7H-pyrrolo[2,3-d]pyrimidin-4-ylamino)piperidin-3-yl]methoxy}propanenitrile]
IC50 [2]: 227 nM
